Assay results as given in patent US7288659B2, “Acylaminothiazole derivatives, their preparation and therapeutic use” (Sanofi-Aventis, priority 2001, dated 2007).

| Compound | melting point [°C] |
| --- | --- |
| CC(C)[C@H](NC(=O)Cc1cc(F)cc(F)c1)C(=O)Nc1ncc(-c2ccccc2COC2CCCCC2)s1 [compound 31, (2S)-N-(5-{2-[(cyclohexyloxy)methyl]phenyl}-1,3-thiazol-2-yl)-2-{[2-(3,5-difluorophenyl)acetyl]amino}-3-methylbutanamide] | 87 |
| C[C@H](NC(=O)C(=O)c1cc(F)cc(F)c1)C(=O)Nc1ncc(-c2ccccc2COC2CCCCC2)s1 [Compound No. 61, (2S)-N-(5-{2-[(cyclohexyloxy)methyl]phenyl}-1,3-thiazol-2-yl)-2-{[2-(3,5-difluorophenyl)-2-oxoacetyl]-amino}propanamide] | 78 |
| C[C@H](NC(=O)Cc1cccc(F)c1)C(=O)Nc1ncc(-c2ccccc2COC2CCCCC2)s1 [compound 19, (2S)-N-(5-{2-[(cyclohexyloxy)methyl]phenyl}-1,3-thiazol-2-yl)-2-{[2-(3-fluorophenyl)acetyl]amino}-propanamide] | 98 |
| Cc1nc(NC(=O)[C@H](C)NC(=O)Cc2cc(F)cc(F)c2)sc1-c1ccccc1COC(C)C [compound 27, (2S)-2-{[2-(3,5-difluorophenyl)acetyl]amino}-N-{5-[2-(isopropoxymethyl)phenyl]-4-methyl-1,3-thiazol-2-yl}propanamide] | 74 |
| Cc1nc(NC(=O)[C@H](C)NC(=O)Cc2cc(F)cc(F)c2)sc1-c1ccccc1COC1CCCCC1 [compound 23, (2S)-N-(5-{2-[(cyclohexyloxy)methyl]phenyl}-4-methyl-1,3-thiazol-2-yl)-2-{[2-(3,5-difluorophenyl)-acetyl]amino}propanamide] | 85 |
| C[C@H](NC(=O)Cc1cc(F)cc(F)c1)C(=O)Nc1ncc(-c2ccccc2CSC2CCCCC2)s1 [compound 54, (2S)-N-(5-{2-[(cyclohexylsulfanyl)methyl]phenyl}-1,3-thiazol-2-yl)-2-{[2-(3,5-difluorophenyl)acetyl]-amino}propanamide] | 91.6 |
| Cc1ccc(CC(=O)N[C@@H](C)C(=O)Nc2ncc(-c3ccccc3COC3CCCCC3)s2)cc1 [compound 17, (2S)-N-(5-{2-[(cyclohexyloxy)methyl]phenyl}-1,3-thiazol-2-yl)-2-{[2-(4-methylphenyl)acetyl]amino}-propanamide] | 239 |
| C[C@H](NC(=O)Cc1cc(F)cc(F)c1)C(=O)Nc1ncc(-c2ccc(COCC3CCCCC3)cc2)s1 [compound 46, (2S)-N-(5-{4-[(cyclohexylmethoxy)methyl]phenyl}-1,3-thiazol-2-yl)-2-{[2-(3,5-difluorophenyl)acetyl]-amino}propanamide] | 166 |
| CCC[C@H](NC(=O)[C@H](O)c1cc(F)cc(F)c1)C(=O)Nc1ncc(-c2ccccc2COC2CCCCC2)s1 [compound 56, (2S)-N-(5-{2-[(cyclohexyloxy)methyl]phenyl}-1,3-thiazol-2-yl)-2-{[(2R)-2-(3,5-difluorophenyl)-2-hydroxyacetyl]amino}pentanamide] | 112 |
| C[C@@H](NC(=O)Cc1cc(F)cc(F)c1)C(=O)Nc1ncc(-c2ccccc2COC2CCCCC2)s1 [compound 25, (2R)-N-(5-{2-[(cyclohexyloxy)methyl]phenyl}-1,3-thiazol-2-yl)-2-{[2-(3,5-difluorophenyl)acetyl]amino}-propanamide] | 95 |
| C[C@H](NC(=O)Cc1ccc(F)cc1)C(=O)Nc1ncc(-c2ccccc2COC2CCCCC2)s1 [compound 20, (2S)-N-(5-{2-[(cyclohexyloxy)methyl]phenyl}-1,3-thiazol-2-yl)-2-{[2-(4-fluorophenyl)acetyl]amino}-propanamide] | 70 |
| CC(C)OCc1ccccc1-c1cnc(NC(=O)[C@H](C)NC(=O)Cc2cc(F)cc(F)c2)s1 [compound 22, (2S)-2-{[2-(3,5-difluorophenyl)acetyl]amino}-N-{5-[2-(isopropoxymethyl)phenyl]-1,3-thiazol-2-yl}propanamide] | 136 |
| CC(NC(=O)Cc1cc(F)cc(F)c1)C(=O)Nc1ncc(-c2ccccc2COCC2CCCCC2)s1 (stereo not shown) [compound 8, N-(5-{2-[(cyclohexylmethoxy)methyl]phenyl}-1,3-thiazol-2-yl)-2-{[2-(3,5-difluorophenyl)acetyl]amino}-propanamide] | 143 |
| CCc1nc(NC(=O)[C@H](C)NC(=O)Cc2cc(F)cc(F)c2)sc1-c1ccccc1COC1CCCCC1 [compound 62, (2S)-N-(5-{2-[(cyclohexyloxy)methyl]phenyl}-4-ethyl-1,3-thiazol-2-yl)-2-{[2-(3,5-difluorophenyl)-acetyl]amino}propanamide] | 70 |
| CC(C)OCc1cccc(-c2cnc(NC(=O)[C@H](C)NC(=O)Cc3cc(F)cc(F)c3)s2)c1 [compound 45, (2S)-2-{[2-(3,5-difluorophenyl)acetyl]amino}-N-(5-{3-(isopropoxymethyl)phenyl}-1,3-thiazol-2-yl)propanamide] | 136 |
| COCc1ccccc1-c1cnc(NC(=O)C(C)NC(=O)Cc2cc(F)cc(F)c2)s1 (stereo not shown) [compound 13, 2-{[2-(3,5-difluorophenyl)acetyl]amino}-N-{5-[2-(methoxymethyl)phenyl]-1,3-thiazol-2-yl}propanamide] | 194 |

| Compound | melting point [°C] |
| --- | --- |
| CC(NC(=O)Cc1cc(F)cc(F)c1)C(=O)Nc1ncc(-c2ccccc2COCc2ccccc2)s1 (stereo not shown) [Compound No. 6, N-(5-{2-[(benzyloxy)methyl]phenyl}-1,3-thiazol-2-yl)-2-{[2-(3,5-difluorophenyl)acetyl]amino}propanamide] | 147 |
| C[C@H](NC(=O)Cc1cc(F)cc(F)c1)C(=O)Nc1ncc(-c2cccc(COCC3CCCCC3)c2)s1 [compound 43, (2S)-N-(5-{3-[(cyclohexylmethoxy)methyl]phenyl}-1,3-thiazol-2-yl)-2-{[2-(3,5-difluorophenyl)acetyl]amino}propanamide] | 144 |
| CCC[C@H](NC(=O)Cc1cc(F)cc(F)c1)C(=O)Nc1ncc(-c2ccccc2COC2CCCCC2)s1 [compound 42, (2S)-N-(5-{2-[(cyclohexyloxy)methyl]phenyl}-1,3-thiazol-2-yl)-2-{[2-(3,5-difluorophenyl)acetyl]amino}-pentanamide] | 134 |
| COc1ccc(CC(=O)N[C@@H](C)C(=O)Nc2ncc(-c3ccccc3COC3CCCCC3)s2)cc1 [compound 33, (2S)-N-(5-{2-[(cyclohexyloxy)methyl]phenyl}-1,3-thiazol-2-yl)-2-{[2-(4-methoxyphenyl)acetyl]amino}-propanamide] | 74 |
| C[C@H](NC(=O)Cc1cc(F)cc(F)c1)C(=O)Nc1ncc(-c2ccccc2COC2CCCC2)s1 [compound 49, (2S)-N-(5-{2-[(cyclopentyloxy)methyl]phenyl}-1,3-thiazol-2-yl)-2-{[2-(3,5-difluorophenyl)acetyl]amino}-propanamide] | 236 |
| C[C@H](NC(=O)Cc1cccc(OC(F)(F)F)c1)C(=O)Nc1ncc(-c2ccccc2COC2CCCCC2)s1 [compound 48, (2S)-N-(5-{2-[(cyclohexyloxy)methyl]phenyl}-1,3-thiazol-2-yl)-2-{[2-(3-trifluoromethoxyphenyl)acetyl]-amino}propanamide] | 60 |
| C[C@H](NC(=O)Cc1cc(F)cc(F)c1)C(=O)Nc1ncc(-c2ccccc2COC2CCCCC2)s1 [Compound No. 26, (2S)-N-(5-{2-[(cyclohexyloxy)methyl]phenyl}-1,3-thiazol-2-yl)-2-{[2-(3,5-difluorophenyl)acetyl]amino}-propanamide] | 140 |
| C[C@H](NC(=O)Cc1ccc(F)c(F)c1)C(=O)Nc1ncc(-c2ccccc2COC2CCCCC2)s1 [compound 30, (2S)-N-(5-{2-[(cyclohexyloxy)methyl]phenyl}-1,3-thiazol-2-yl)-2-{[2-(3,4-difluorophenyl)acetyl]amino}-propanamide] | 136 |
| CC(C)C[C@H](NC(=O)Cc1cc(F)cc(F)c1)C(=O)Nc1ncc(-c2ccccc2COC2CCCCC2)s1 [compound 36, (2S)-N-(5-{2-[(cyclohexyloxy)methyl]phenyl}-1,3-thiazol-2-yl)-2-{[2-(3,5-difluorophenyl)acetyl]amino}-4-methylpentanamide] | 67 |
| COC1CCC(OCc2ccccc2-c2cnc(NC(=O)[C@H](C)NC(=O)Cc3cc(F)cc(F)c3)s2)CC1 (stereo partly drawn) [compound 73, (2S)-2-{[2-(3,5-difluorophenyl)acetyl]amino}-N-[5-(2-{[(4-methoxycyclohexyl)oxy]methyl}phenyl]-1,3-thiazol-2-yl}propanamide] | 149 |
| CCC[C@H](NC(=O)C(F)c1cc(F)cc(F)c1)C(=O)Nc1ncc(-c2ccccc2COC2CCCCC2)s1 (stereo partly drawn) [compound 67, (2S)-N-(5-{2-[(cyclohexyloxy)methyl]phenyl}-1,3-thiazol-2-yl)-2-{[2-(3,5-difluorophenyl)-2-fluoroacetyl]amino}pentanamide] | 91 |
| Cc1cccc(CC(=O)N[C@@H](C)C(=O)Nc2ncc(-c3ccccc3COC3CCCCC3)s2)c1 [compound 16, (2S)-N-(5-{2-[(cyclohexyloxy)methyl]phenyl}-1,3-thiazol-2-yl)-2-{[2-(3-methylphenyl)acetyl]amino}-propanamide] | 98 |
| CCC[C@H](NC(=O)C(C)c1cc(F)cc(F)c1)C(=O)Nc1ncc(-c2ccccc2COC2CCCCC2)s1 (stereo partly drawn) [Compound No. 58, (2S)-N-(5-{2-[(cyclohexyloxy)methyl]phenyl}-1,3-thiazol-2-yl)-2-{[2-(3,5-difluorophenyl)propanoyl]-amino}pentanamide] | 88 |
| CCC[C@H](NC(=O)[C@@H](O)c1cc(F)cc(F)c1)C(=O)Nc1nc(C)c(-c2ccccc2COC2CCCCC2)s1 [compound 57, (2S)-N-(5-{2-[(cyclohexyloxy)methyl]phenyl}-4-methyl-1,3-thiazol-2-yl)-2-{[(2S)-2-(3,5-difluorophenyl)-2-hydroxyacetyl]amino}pentanamide] | 115 |
| CCOCc1ccccc1-c1cnc(NC(=O)[C@H](C)NC(=O)Cc2cc(F)cc(F)c2)s1 [compound 41, (2S)-2-{[2-(3,5-difluorophenyl)acetyl]amino)-N-(5-[2-(ethoxymethyl)phenyl]-1,3-thiazol-2-yl}propanamide] | 173 |
